According to PubChem BioAssay AID1963967 (Molecular Pharmacology Branch, DTP, NCI, 2024):

Tested on: 855422-203-R-J1-PDC spheroids with HUVEC/MSC, viability
Assay: Anticancer human tumor 855422-203-R-J1-PDC patient-derived bladder carcinoma cell line growth inhibition [PI3K]
Details: for viability, T/C: stronger effect = lower value
Outline: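 Targeted small molecules plus PI3K inhibitors, half-log dose series from Cmax (default top 10 microM), were applied to heterotypic spheroids of cancer cells with HUVEC and MSCs. Viability indicated growth inhibition.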

[1] = curve of first compound, second compound 0.0316 µM
[2] = curve of first compound, second compound 0.1 µM
[3] = curve of first compound, second compound 0.316 µM
[4] = curve of first compound, second compound 1 µM
[5] = second compound 0.0316 µM, first compound 0.0316 µM
[6] = second compound 0.0316 µM, first compound 0.1 µM
[7] = second compound 0.0316 µM, first compound 0.316 µM
[8] = second compound 0.0316 µM, first compound 1 µM
[9] = second compound 0.0316 µM, first compound 3.16 µM
[10] = second compound 0.0316 µM, first compound 10 µM
[11] = second compound 0.1 µM, first compound 0.0316 µM
[12] = second compound 0.1 µM, first compound 0.1 µM
[13] = second compound 0.1 µM, first compound 0.316 µM
[14] = second compound 0.1 µM, first compound 1 µM
[15] = second compound 0.1 µM, first compound 3.16 µM
[16] = second compound 0.1 µM, first compound 10 µM
[17] = second compound 0.316 µM, first compound 0.0316 µM
[18] = second compound 0.316 µM, first compound 0.1 µM
[19] = second compound 0.316 µM, first compound 0.316 µM
[20] = second compound 0.316 µM, first compound 1 µM
[21] = second compound 0.316 µM, first compound 3.16 µM
[22] = second compound 0.316 µM, first compound 10 µM
[23] = second compound 1 µM, first compound 0.0316 µM
[24] = second compound 1 µM, first compound 0.1 µM
[25] = second compound 1 µM, first compound 0.316 µM
[26] = second compound 1 µM, first compound 1 µM
[27] = second compound 1 µM, first compound 3.16 µM
[28] = second compound 1 µM, first compound 10 µM
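Note: agents incubated with spheroids for one week before read-out.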
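Throughout, for viability, T/C: 100% = DMSO vehicle-treated control wells.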

What does the source list for `CNC(=O)c1ccc(N2C(=S)N(c3ccc(C#N)c(C(F)(F)F)c3)C(=O)C2(C)C)cc1F` + CC(Nc1ncnc2nc[nH]c12)c1cc2cccc(Cl)c2c(=O)n1-c1ccccc1?
IC50 [1]: > 10 µM; IC50 [2]: > 10 µM; IC50 [3]: > 10 µM; IC50 [4]: > 10 µM; IC50 (curve of first compound, second compound 3.16 µM): > 10 µM; IC50 (curve of first compound, second compound 10 µM): > 10 µM; viability, T/C [5]: 111%; viability, T/C [6]: 93%; viability, T/C [7]: 109%; viability, T/C [8]: 89.1%; viability, T/C [9]: 86.2%; viability, T/C [10]: 75.4%; viability, T/C [11]: 117%; viability, T/C [12]: 91.1%; viability, T/C [13]: 104%; viability, T/C [14]: 86.6%; viability, T/C [15]: 74.3%; viability, T/C [16]: 68.5%; viability, T/C [17]: 96.9%; viability, T/C [18]: 105%; viability, T/C [19]: 102%; viability, T/C [20]: 80.2%; viability, T/C [21]: 76.5%; viability, T/C [22]: 63.1%; viability, T/C [23]: 97.4%; viability, T/C [24]: 102%; viability, T/C [25]: 106%; viability, T/C [26]: 91.4%; viability, T/C [27]: 73%; viability, T/C [28]: 69.1%; viability, T/C (second compound 3.16 µM, first compound 0.0316 µM): 100%; viability, T/C (second compound 3.16 µM, first compound 0.1 µM): 100%; viability, T/C (second compound 3.16 µM, first compound 0.316 µM): 100%; viability, T/C (second compound 3.16 µM, first compound 1 µM): 84.3%; viability, T/C (second compound 3.16 µM, first compound 3.16 µM): 76%; viability, T/C (second compound 3.16 µM, first compound 10 µM): 77.7%; viability, T/C (second compound 10 µM, first compound 0.0316 µM): 89%; viability, T/C (second compound 10 µM, first compound 0.1 µM): 80.9%; viability, T/C (second compound 10 µM, first compound 0.316 µM): 95.8%; viability, T/C (second compound 10 µM, first compound 1 µM): 81%; viability, T/C (second compound 10 µM, first compound 3.16 µM): 77.4%; viability, T/C (second compound 10 µM, first compound 10 µM): 68.4%

Which results are given for `CNC(=O)c1ccc(N2C(=S)N(c3ccc(C#N)c(C(F)(F)F)c3)C(=O)C2(C)C)cc1F`?
viability, T/C (compound 0.0316 µM): 110% [middle of 4 runs]; viability, T/C (compound 0.1 µM): 99.4% [middle of 4 runs]; viability, T/C (compound 0.316 µM): 106% [middle of 4 runs]; viability, T/C (compound 1 µM): 84.8% [middle of 4 runs]; viability, T/C (compound 3.16 µM): 79.4% [middle of 4 runs]; viability, T/C (compound 10 µM): 66.9% [middle of 4 runs]; IC50 (curve of compound): > 10 µM

How did the IC50 (curve of first compound, second compound 0.00316 µM) turn out when `CC1(C)CCC(CN2CCN(c3ccc(C(=O)NS(=O)(=O)c4ccc(NCC5CCOCC5)c([N+](=O)[O-])c4)c(Oc4cnc5[nH]ccc5c4)c3)CC2)=C(c2ccc(Cl)cc2)C1` + COc1c(OCCCN2CCOCC2)ccc2c3n(c(=NC(=O)c4cnc(N)nc4)nc12)CCN3 was run?
Its IC50 is 5.28 µM.

What about the IC50 (curve of first compound, second compound 0.01 µM) of the same compound?
The IC50 was 5.04 µM.

What about the IC50 [1] of the same compound?
Its IC50 is 4.6 µM.

And the IC50 [2]?
The IC50 was under 0.0316 µM.

What about the IC50 [3] of the same compound?
The IC50 was under 0.0316 µM.

What about the IC50 [4] of the same compound?
The IC50 was under 0.0316 µM.

And the viability, T/C (second compound 0.00316 µM, first compound 0.0316 µM)?
Its viability, T/C is 98.5%.

What about the viability, T/C (second compound 0.00316 µM, first compound 0.1 µM) of the same compound?
The viability, T/C was 80.8%.

And the viability, T/C (second compound 0.00316 µM, first compound 0.316 µM)?
Its viability, T/C is 99.5%.

And the viability, T/C (second compound 0.00316 µM, first compound 1 µM)?
The viability, T/C was 87.2%.

And the viability, T/C (second compound 0.00316 µM, first compound 3.16 µM)?
The viability, T/C was 88.1%.

And the viability, T/C (second compound 0.00316 µM, first compound 10 µM)?
Its viability, T/C is 2.53%.

And the viability, T/C (second compound 0.01 µM, first compound 0.0316 µM)?
The viability, T/C was 91%.

And the viability, T/C (second compound 0.01 µM, first compound 0.1 µM)?
Its viability, T/C is 77.5%.

And the viability, T/C (second compound 0.01 µM, first compound 0.316 µM)?
The viability, T/C was 78.3%.

And the viability, T/C (second compound 0.01 µM, first compound 1 µM)?
Its viability, T/C is 76.4%.

And the viability, T/C (second compound 0.01 µM, first compound 3.16 µM)?
Its viability, T/C is 90.8%.

What about the viability, T/C (second compound 0.01 µM, first compound 10 µM) of the same compound?
The viability, T/C was 1.94%.

And the viability, T/C [5]?
The viability, T/C was 62.5%.

And the viability, T/C [6]?
The viability, T/C was 65.3%.

And the viability, T/C [7]?
The viability, T/C was 73.7%.

And the viability, T/C [8]?
Its viability, T/C is 78.2%.

What about the viability, T/C [9] of the same compound?
Its viability, T/C is 87.3%.

And the viability, T/C [10]?
The viability, T/C was 1.43%.

And the viability, T/C [11]?
Its viability, T/C is 29.7%.

And the viability, T/C [12]?
Its viability, T/C is 30.3%.

And the viability, T/C [13]?
The viability, T/C was 30.6%.

And the viability, T/C [14]?
The viability, T/C was 33.5%.

What about the viability, T/C [15] of the same compound?
The viability, T/C was 31.8%.

And the viability, T/C [16]?
Its viability, T/C is 1.14%.

What about the viability, T/C [17] of the same compound?
Its viability, T/C is 12.1%.

What about the viability, T/C [18] of the same compound?
The viability, T/C was 9.95%.

What about the viability, T/C [19] of the same compound?
Its viability, T/C is 12.7%.

And the viability, T/C [20]?
The viability, T/C was 9.33%.

And the viability, T/C [21]?
The viability, T/C was 9.24%.

And the viability, T/C [22]?
Its viability, T/C is 0.68%.

And the viability, T/C [23]?
The viability, T/C was 3.97%.

And the viability, T/C [24]?
The viability, T/C was 5.15%.

What about the viability, T/C [25] of the same compound?
The viability, T/C was 4.27%.

What about the viability, T/C [26] of the same compound?
The viability, T/C was 5.32%.

What about the viability, T/C [27] of the same compound?
Its viability, T/C is 4.63%.

What about the viability, T/C [28] of the same compound?
Its viability, T/C is 1.04%.
